Molecules are shown by their SMILES. Where two headings read alike, the source gives them in different places.

The target of one data set is T1, human 5-HT2C receptor (Homo sapiens, UniProt P28335).
T1 construct: expressed in transfected cells; host or cells: U2OS
T1 sequence (P28335 33-458): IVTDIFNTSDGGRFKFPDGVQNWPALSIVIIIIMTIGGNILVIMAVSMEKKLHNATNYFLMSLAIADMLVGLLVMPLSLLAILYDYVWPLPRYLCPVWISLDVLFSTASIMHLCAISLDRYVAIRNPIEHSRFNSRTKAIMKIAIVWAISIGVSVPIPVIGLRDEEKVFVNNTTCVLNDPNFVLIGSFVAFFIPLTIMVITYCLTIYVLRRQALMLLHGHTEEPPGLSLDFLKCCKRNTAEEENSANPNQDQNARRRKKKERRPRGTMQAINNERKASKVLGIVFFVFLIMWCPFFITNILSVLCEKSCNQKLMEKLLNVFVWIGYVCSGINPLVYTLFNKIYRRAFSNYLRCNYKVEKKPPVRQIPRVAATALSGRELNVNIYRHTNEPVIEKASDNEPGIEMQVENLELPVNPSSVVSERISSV
The data set is described as follows: cell-based. The following applies: calcium mobilization FLIPR; for Emax (% of serotonin): U2OS cells, relative to maximum response of serotonin; for EC50: stably transfected U2OS cells.

For the next data set, the target named is human 5-HT2B receptor (Homo sapiens, UniProt P41595). The data set is described as follows: Human 5-HT2B FLIPR calcium mobilization assay. The following applies: for Emax (% of serotonin): HEK293 cells, relative to maximum response of serotonin. Also on record: expressed in transfected cells; host or cells: HEK293. It is filed as cell-based. As for the experimental part: Compound potency (EC50) and efficacy (Max response) against the human 5-HT2B receptor in stably transfected HEK293 cells were determined in a calcium mobilization-based assay.
human 5-HT2B receptor, sequence (P41595 whole entry): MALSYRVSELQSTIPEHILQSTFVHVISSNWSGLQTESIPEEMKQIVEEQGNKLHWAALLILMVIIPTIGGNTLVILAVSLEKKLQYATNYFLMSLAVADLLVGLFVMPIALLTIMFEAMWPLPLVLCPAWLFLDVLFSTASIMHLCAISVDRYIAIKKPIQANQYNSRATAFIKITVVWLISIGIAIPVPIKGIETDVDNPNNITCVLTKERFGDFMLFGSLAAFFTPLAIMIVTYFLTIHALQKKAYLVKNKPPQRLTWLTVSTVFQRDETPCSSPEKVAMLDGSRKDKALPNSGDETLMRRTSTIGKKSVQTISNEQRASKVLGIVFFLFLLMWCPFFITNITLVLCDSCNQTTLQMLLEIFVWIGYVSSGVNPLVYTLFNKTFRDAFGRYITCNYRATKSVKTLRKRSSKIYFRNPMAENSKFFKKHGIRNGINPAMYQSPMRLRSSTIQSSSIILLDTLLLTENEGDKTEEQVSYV
Cells were seeded in a total volume of 20 μL into white walled, 384-well microplates and incubated at 37° C. overnight. Prior to testing, cell plating media was exchanged with 20 μL of Dye Loading buffer (HBSS+20 mM HEPES containing 1× Dye, 1× Additive A, and 2.5 mM Probenecid). Plates were incubated at 37° C. for 45 mins followed by 15 mins at room temperature.
10 μL of assay buffer (HBSS+20 mM HEPES) were added to cells. Intermediate dilution of sample stocks was performed to generate 4× samples in assay buffer. Assay plates and compound plates were loaded into the FLIPR instrument. 10 μL of sample was added using the FLIPR onboard robotics after 5 seconds of starting calcium measurement. A final assay vehicle concentration was 1%. The results are expressed as percent efficacy relative to the maximum response of the control ligand (serotonin) in Table 12.
Compound potency (EC50) and efficacy (Max response) against the human 5-HT2B receptor in stably transfected HE K293 cells was determined in a calcium mobilization-based assay.
10 μL of assay buffer (HBSS+20 mM HEPES) was added to cells. Intermediate dilution of sample stocks was performed to generate 4× samples in assay buffer. Assay plates and compound plates were loaded into the FLIPR instrument. 10 μL of samples were added using the FLIPR onboard robotics after 5 secs of starting calcium measurement. The final assay vehicle concentration was 1%. The results are expressed as percent efficacy relative to the maximum response of the control ligand (serotonin) in Table 62.
For orientation: Calcium flux is commonly read through the fluorescence of an indicator in the cells.

A short description of data set [1]: Plasma protein binding by equilibrium dialysis, rat. The following applies: for fraction unbound at 6 h, 1 μM / recovery at 6 h, 1 µM: rat; for fraction unbound at 6 h, 1 μM: plasma. As for the experimental part:
1. The Frozen Plasma (Stored at −80° C.) was Thawed Immediately in a 37° C. Water Bath.
The working solution of test compounds and control compound was prepared in DMSO at the concentration of 200 μM, and then the working solution was spiked into plasma. The final concentration of compound was 1 μM. The final concentration of DMSO was 0.5%. Ketoconazole was used as positive control in the assay.
The dialysis membranes were soaked in ultrapure water for 60 minutes to separate strips, then in 20% ethanol for 20 minutes, finally in dialysis buffer for 20 minutes.
The dialysis set up was assembled according to the manufacturer's instruction. Each Cell was with 150 μL of plasma sample and dialyzed against equal volume of dialysis buffer (PBS). The assay was performed in duplicate. The dialysis plate was sealed and incubated in an incubator at 37° C. with 5% CO2 at 100 rpm for 6 hours. At the end of incubation, 50 μL of samples from both buffer and plasma chambers were transferred to wells of a 96-well plate.
50 μL of plasma was added to each buffer samples and an equal volume of PBS was supplemented to the collected plasma sample. 400 μL of precipitation buffer acetonitrile containing internal standards (IS, 200 nM labetalol, 100 nM tolbutamide and 100 nM ketoprofen) was added to precipitate protein and release compounds. Samples were vortexed for 2 minutes and centrifuged for 30 minutes at 3,220 g. Aliquot of 50 μL of the supernatant was diluted by 150 μL acetonitrile containing internal standards: ultra-pure H2O=1:1, and the mixture was used for LC-MS/MS analysis.
All calculations were carried out using Microsoft Excel. The concentrations of test compounds in the buffer and plasma chambers were determined from peak area ratios. The percentages of bound compound were calculated as follows: […]
The working solution of test compounds and control compound was prepared in DMSO at the concentration of 200 μM, and then the working solution was spiked into plasma. The final concentration of compound was […]. The final concentration of DMSO was 0.5%. Ketoconazole was used as positive control in the assay.
A general note: In equilibrium dialysis only unbound substance equilibrates across the membrane.

The mark [2] stands for this setting: calcium mobilization FLIPR, stably transfected HEK293 cells, read-out: EC50.

A word on the EC50: it is the concentration giving half of the maximal effect. For the compound `[2H]C([2H])(c1c[nH]c2ccc(OCCCCCN3C(=O)[C@H]4CCCC[C@H]4C3=O)cc12)[C@H]1CCCN1C([2H])([2H])[2H]` [Cis (R) I-248, 2-(5-((3-(((R)-1-(Methyl-d3)pyrrolidin-2-yl)methyl-d2)-1H-indol-5-yl)oxy)pentyl)hexahydro-1H-isoindole-1,3(2H)-dione], the results for the “Emax (% of serotonin)” value on human 5-HT2C receptor and at human 5-HT2B receptor (calcium mobilization FLIPR) were 89.99 % of serotonin and 69.85 % of serotonin, respectively. Also, the results for the EC50 on human 5-HT2C receptor and on human 5-HT2B receptor (setting [2]) were 151 nM and 24.9 nM, respectively.

The fraction unbound is the share of the substance not bound to proteins or other matrix. Higher therefore signals weak binding. For the compound `[2H]C([2H])(c1c[nH]c2ccc(OCCCCN3C(=O)c4ccccc4C3=O)cc12)[C@H]1CCCN1C([2H])([2H])[2H]` [(R) I-244, (R)-2-(4-((3-((1-(Methyl-d3)pyrrolidin-2-yl)methyl-d2)-1H-indol-5-yl)oxy)butyl)isoindoline-1,3-dione], the “Emax (% of serotonin)” value on human 5-HT2C receptor was 87.27 % of serotonin; at human 5-HT2B receptor (calcium mobilization FLIPR), 92.75 % of serotonin. Further, the values for the EC50 on human 5-HT2C receptor and at human 5-HT2B receptor (setting [2]) were 2.53 nM and 2.5 nM, respectively. In data set [1] (SD), this compound showed an unbound share (fraction unbound) at 6 h, 1 μM of 0.19. Also, the recovery at 6 h, 1 µM in data set [1] (Sprague-Dawley (SD)) is 86.5%. The “% Remaining @ 6 hours” value in data set [1] (rat plasma) came to 85.45%.

Turning to `CSc1ccc2[nH]cc(C[C@H]3CCCN3C)c2c1` [(R) I-1, (R)-3-((1-Methylpyrrolidin-2-yl)methyl)-5-(methylthio)-1H-indole], the entries for the “Emax (% of serotonin)” value on human 5-HT2C receptor and on human 5-HT2B receptor (calcium mobilization FLIPR) were 95.27 % of serotonin and 62.94 % of serotonin, respectively. Also, the 50% effective concentration (EC50) on human 5-HT2C receptor came out at 0.6 nM; on human 5-HT2B receptor, 2.74 nM. Further, the “% Remaining @ 6 hours” value in data set [1] (Rat plasma, 1 μM, 37° C.) came out at 105.76%. Besides, in data set [1] (SD), the recovery at 6 h, 1 µM amounted to 103%. Besides, the fraction unbound at 6 h, 1 μM in data set [1] (Sprague-Dawley) was 0.534.

On to `[2H]C([2H])(c1c[nH]c2ccc(OCCCCCN3C(=O)c4ccccc4C3=O)cc12)[C@H]1CCCN1C([2H])([2H])[2H]` [(R) I-245, (R)-2-(5-((3-((1-(Methyl-d3)pyrrolidin-2-yl)methyl-d2)-1H-indol-5-yl)oxy)pentyl)isoindoline-1,3-dione], for which the “Emax (% of serotonin)” value is 83.29 % of serotonin on human 5-HT2C receptor and 53.91 % of serotonin on human 5-HT2B receptor (calcium mobilization FLIPR). In addition, the half-maximal effective concentration (EC50) on human 5-HT2C receptor turned out to be 42.3 nM; on human 5-HT2B receptor (setting [2]) it was 11.2 nM.

In the case of `COCCN1CCC[C@@H]1Cc1c[nH]c2ccc(OC)cc12` [(R) I-98, (R)-5-Methoxy-3-((1-(2-methoxyethyl)pyrrolidin-2-yl)methyl)-1H-indole], the “Emax (% of serotonin)” value at human 5-HT2C receptor is 95.23 % of serotonin; at human 5-HT2B receptor (calcium mobilization FLIPR), 52.7 % of serotonin. The concentration for a half-maximal effect (EC50) amounted to 6.51 nM at human 5-HT2C receptor and 2.88 nM on human 5-HT2B receptor (setting [2]). The same compound gave a fraction unbound at 6 h, 1 μM in data set [1] (SD) of 0.569. In data set [1] (Sprague-Dawley (SD)), this compound came in with a recovery at 6 h, 1 µM of 88%. Also, in data set [1] (rat plasma), the “% Remaining @ 6 hours” value is listed as 96.55%.
